According to US20240123078A1, “COMPOUNDS AND METHODS FOR MODULATING IMMUNE-RELATED PROTEINS” (Vividion Therapeutics, Inc., priority 2019, published 2024):

Tests used:
[1] = biological target: T1, ACAT1 Acetyl-CoA acetyltransferase, mitochondrial C119 (P24752) (Homo sapiens, UniProt P24752); experiment: Cysteine reactivity ABPP; format: binding
T1 construct: endogenous in cells; host or cells: primary human T cells
T1 sequence (P24752 34-427): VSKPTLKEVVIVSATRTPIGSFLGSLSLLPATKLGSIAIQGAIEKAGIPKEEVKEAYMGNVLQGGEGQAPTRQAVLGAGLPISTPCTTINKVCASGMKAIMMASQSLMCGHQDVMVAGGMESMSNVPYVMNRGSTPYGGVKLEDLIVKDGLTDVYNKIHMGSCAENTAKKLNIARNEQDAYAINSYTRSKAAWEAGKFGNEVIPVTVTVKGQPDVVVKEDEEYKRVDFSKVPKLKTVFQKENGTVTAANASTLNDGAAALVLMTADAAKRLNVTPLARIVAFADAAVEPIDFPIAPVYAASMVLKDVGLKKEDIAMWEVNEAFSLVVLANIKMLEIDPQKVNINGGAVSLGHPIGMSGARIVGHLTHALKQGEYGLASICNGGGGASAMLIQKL
Procedure: (§1) Activated or expanded primary human T cells were re-suspended in RPMI (1×10^6 cells/mL) containing 10% fetal bovine serum (FBS), penicillin (100 U/mL), streptomycin ([…]), and L-glutamine (2 mM). The cells were treated with DMSO or compounds for 3 h, pelleted (524 g, 5 min), washed with PBS, and lysed by sonication (2×8 pulses). Soluble and particulate proteomic fractions were separated by ultracentrifugation (100,000 g, 45 min), and protein concentration was normalized to 1.7 mg/mL using a standard DC protein assay (Bio-Rad). The resulting proteomes were analyzed by competitive isotopic Tandem Orthogonal Proteolysis Activity-Based Protein Profiling (isoTOP-ABPP).
(§2) The heavy/light isoTOP-ABPP ratios (R values) for each unique peptide (DMSO/compound treated) were quantified with in-house CIMAGE software (Weerapana et al., 2010) using default parameters (3 MS1 acquisitions per peak and signal to noise threshold set to 2.5). Site-specific engagement of cysteine residues was assessed by blockade of IA-alkyne probe labeling. […] Ratios for unique peptide sequences were calculated for each experiment; overlapping peptides with the same modified cysteine (e.g., different charge states, elution times or tryptic termini) were grouped together and the median ratio was reported as the final ratio (R). Additionally, ratios for peptide sequences containing multiple cysteines were grouped together. When aggregating data across experimental replicates, the mean of each experimental median R was reported. The peptide ratios reported by CIMAGE were further filtered to ensure the removal or correction of low-quality ratios in each individual dataset. The quality filters applied were the following: removal of half-tryptic peptides, removal of peptides with more than one tryptic miscleaved, removal of peptides with R=20 and only a single MS2 event triggered during the elution of the parent ion, removal of non-unique peptides. Further filtering was then performed as described below for each experiment type.
(§3) Samples (500 μL, 1.7 mg/mL) were treated with iodoacetamide desthiobiotin (IA-DTB, 5 μL of 10 mM stock in DMSO, final concentration: 100 μM) for 1 h at ambient temperature. Ice-cold MeOH (500 μL) and CHCl3 (200 μL) were then added, the mixture was vortexed and centrifuged (10,000 g, 10 min, 4° C.) to afford a protein disc at the interface of CHCl3 and aqueous layers. Both layers were aspirated without perturbing the disk, which was re-suspended in cold methanol (500 μL) and CHCl3 (200 μL) by sonication. The proteins were pelleted (10,000 g, 10 min, 4° C.), and the resulting pellets were re-suspended in a buffer (90 μL) containing 9M urea, 10 mM DTT and 50 mM triethylammonium bicarbonate ( 1/20 dilution of 1.0 M stock solution, pH 8.5) by thorough pipetting up and down. The resulting mixture was heated at 65° C. for 20 min. Sample was cooled to room temp, iodoacetamide (10 μL, 500 mM solution in H2O) was added, and the samples were incubated at 37° C. for 30 min with shaking.
(§4) At individual TMT experiment level, the following filters were applied to remove low-quality peptides: removal of non-unique peptides; removal of half-tryptic peptides; removal of peptides with more than one internal miscleaved site; removal of peptides with low (<10,000) sum of reporter ion intensities for control channels, and peptides with high variation between the replicate control channels (coefficient of variance >0.5). R values (compound-treated vs. DMSO-treated) for each peptide entry were calculated using the reporter ion intensities of DMSO and compound treated TMT channels for each treatment group with a maximum ratio cap of 20. […]

[2] = biological target: T2, CBLB E3 ubiquitin-protein ligase CBL-B C686 (Q13191) (Homo sapiens, UniProt Q13191); experiment: Cysteine reactivity ABPP; format: binding
T2 construct: endogenous in cells; host or cells: primary human T cells
Procedure: as §1, §2, §3, §4

[3] = biological target: T3, JAK1 Tyrosine-protein kinase JAK1 C810, C817 (P23458) (Homo sapiens, UniProt P23458); experiment: Cysteine reactivity ABPP; format: binding
T3 construct: endogenous in cells; host or cells: primary human T cells
Procedure: as §1, §2, §3, §4

[4] = biological target: T4, PFKFB3 6-phosphofructo-2-kinase/fructose-2,6-bisphosphatase 3 C155 (Q16875) (Homo sapiens, UniProt Q16875); experiment: Cysteine reactivity ABPP; format: binding
T4 construct: endogenous in cells; host or cells: primary human T cells
Procedure: as §1, §2, §3, §4

[5] = biological target: T5, PTPN11 Tyrosine-protein phosphatase non-receptor type 11 C259 (Q06124) (Homo sapiens, UniProt Q06124); experiment: Cysteine reactivity ABPP; format: binding
T5 construct: endogenous in cells; host or cells: primary human T cells
T5 sequence (Q06124 1-593): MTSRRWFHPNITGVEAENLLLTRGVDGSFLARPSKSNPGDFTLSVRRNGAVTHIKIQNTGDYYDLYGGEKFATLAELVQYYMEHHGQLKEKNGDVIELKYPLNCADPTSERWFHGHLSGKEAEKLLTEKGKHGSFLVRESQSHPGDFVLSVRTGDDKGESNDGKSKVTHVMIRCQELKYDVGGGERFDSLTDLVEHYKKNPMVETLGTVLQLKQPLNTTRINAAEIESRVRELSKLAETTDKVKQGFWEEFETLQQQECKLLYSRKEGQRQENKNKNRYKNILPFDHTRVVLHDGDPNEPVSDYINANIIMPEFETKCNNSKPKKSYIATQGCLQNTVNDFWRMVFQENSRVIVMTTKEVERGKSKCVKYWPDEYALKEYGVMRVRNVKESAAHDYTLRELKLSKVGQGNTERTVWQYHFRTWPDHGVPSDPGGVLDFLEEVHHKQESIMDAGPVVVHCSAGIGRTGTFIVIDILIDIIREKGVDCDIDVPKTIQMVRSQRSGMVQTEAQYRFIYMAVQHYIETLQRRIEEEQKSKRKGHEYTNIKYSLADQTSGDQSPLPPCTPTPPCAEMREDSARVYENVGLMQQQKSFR
Procedure: as §1, §2, §3, §4

[6] = biological target: T6, STAT3 Signal transducer and activator of transcription 3 C259 (P40763) (Homo sapiens, UniProt P40763); experiment: Cysteine reactivity ABPP; format: binding
T6 construct: endogenous in cells; host or cells: primary human T cells
Procedure: as §1, §2, §3, §4

[7] = biological target: T7, STAT3 Signal transducer and activator of transcription 3 C712, C718 (P40763) (Homo sapiens, UniProt P40763); experiment: Cysteine reactivity ABPP; format: binding
T7 construct: endogenous in cells; host or cells: primary human T cells
Procedure: as §1, §2, §3, §4

[8] = biological target: T8, TYK2 Non-receptor tyrosine-protein kinase TYK2 C838 (P29597) (Homo sapiens, UniProt P29597); experiment: Cysteine reactivity ABPP; format: binding
T8 construct: endogenous in cells; host or cells: primary human T cells
Procedure: as §1, §2, §3, §4

primary human T cells = experiment: Multidimensional screen for inhibition of T cell activation; format: cell-based
Procedure: Non-tissue culture treated 96-well plates are pre-coated with αCD3 (5 μg/mL) and αCD28 antibodies (2 μg/mL) in PBS (100 μL/well) and left at 4° C. overnight. Freshly isolated T cells are re-suspended in RPMI media supplemented with 10% FBS, L-glutamine (2 mM), penicillin (100 U/mL), and streptomycin (100 μg/mL) at 2×10^6 cells/mL. Compound stocks (200×) in DMSO are diluted to 2× stocks in the working RPMI media in another 96-well plate. The pre-coated 96-well treatment plates are washed with PBS (2×200μL), T cells (100 μL/well, 2×10^5 cells/well) are then added to the wells, followed by the addition of 2× compound stocks in RPMI media (100 μL). […]
The levels of secreted IL2, IFNγ and TNFα after incubating T cells in the presence of DMSO or electrophilic compounds under TCR-stimulating conditions are measured using DuoSet ELISA cytokine kits (R&D Systems) in clear microplates (R&D Systems) according to manufacturer's instructions and read using a CLARIOstar (BMG Labtech) plate reader (450 nm).
A multidimensional screen can be preformed of a focused library of structurally elaborated electrophilic small molecules to identify compounds that suppress T cell activation at low-μM concentrations without causing cytotoxicity. […] The viability of T cells can be monitored by flow cytometry using near-IR live-dead stain.

BIRC2 (C45) = biological target: T9, BIRC2 (C45) (Homo sapiens, UniProt Q13490); experiment: isoTOP-ABPP of elaborated compound data (DMF datasets); format: binding; conditions: maximal ratio of 20 = ≥95% reduction in MS1 peak area
T9 construct: endogenous in cells; host or cells: primary human T cells
Procedure: as §1
(§5) The heavy/light isoTOP-ABPP ratios (R values) for each unique peptide (DMSO/compound treated) were quantified with in-house CIMAGE software (Weerapana et al., 2010) using default parameters (3 MS1 acquisitions per peak and signal to noise threshold set to 2.5). Site-specific engagement of cysteine residues was assessed by blockade of IA-alkyne probe labeling. […] Ratios for unique peptide sequences were calculated for each experiment; overlapping peptides with the same modified cysteine (e.g., different charge states, elution times or tryptic termini) were grouped together and the median ratio was reported as the final ratio (R). […]

CASP2 (C366, C370) = biological target: T10, CASP2 (C366, C370) (Homo sapiens, UniProt P42575); experiment: as above; format: binding; conditions: maximal ratio of 20 = ≥95% reduction in MS1 peak area
T10 construct: Soluble and particulate proteomic fractions were separated by ultracentrifugation; endogenous in cells; host or cells: primary human T cells
T10 sequence (P42575 1-452): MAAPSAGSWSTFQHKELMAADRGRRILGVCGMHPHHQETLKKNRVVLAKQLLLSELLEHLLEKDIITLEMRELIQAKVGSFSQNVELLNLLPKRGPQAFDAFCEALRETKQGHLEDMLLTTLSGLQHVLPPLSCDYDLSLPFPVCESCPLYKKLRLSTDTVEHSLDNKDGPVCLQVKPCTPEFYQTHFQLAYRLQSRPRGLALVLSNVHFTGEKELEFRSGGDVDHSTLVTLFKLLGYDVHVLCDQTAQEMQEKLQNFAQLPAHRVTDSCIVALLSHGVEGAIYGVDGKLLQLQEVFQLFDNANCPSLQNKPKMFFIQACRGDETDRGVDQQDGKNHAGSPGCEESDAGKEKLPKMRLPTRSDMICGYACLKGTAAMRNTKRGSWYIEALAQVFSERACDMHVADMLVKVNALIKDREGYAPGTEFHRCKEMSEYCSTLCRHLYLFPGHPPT
Procedure: as §1, §5

T3 sequence (P23458 whole entry): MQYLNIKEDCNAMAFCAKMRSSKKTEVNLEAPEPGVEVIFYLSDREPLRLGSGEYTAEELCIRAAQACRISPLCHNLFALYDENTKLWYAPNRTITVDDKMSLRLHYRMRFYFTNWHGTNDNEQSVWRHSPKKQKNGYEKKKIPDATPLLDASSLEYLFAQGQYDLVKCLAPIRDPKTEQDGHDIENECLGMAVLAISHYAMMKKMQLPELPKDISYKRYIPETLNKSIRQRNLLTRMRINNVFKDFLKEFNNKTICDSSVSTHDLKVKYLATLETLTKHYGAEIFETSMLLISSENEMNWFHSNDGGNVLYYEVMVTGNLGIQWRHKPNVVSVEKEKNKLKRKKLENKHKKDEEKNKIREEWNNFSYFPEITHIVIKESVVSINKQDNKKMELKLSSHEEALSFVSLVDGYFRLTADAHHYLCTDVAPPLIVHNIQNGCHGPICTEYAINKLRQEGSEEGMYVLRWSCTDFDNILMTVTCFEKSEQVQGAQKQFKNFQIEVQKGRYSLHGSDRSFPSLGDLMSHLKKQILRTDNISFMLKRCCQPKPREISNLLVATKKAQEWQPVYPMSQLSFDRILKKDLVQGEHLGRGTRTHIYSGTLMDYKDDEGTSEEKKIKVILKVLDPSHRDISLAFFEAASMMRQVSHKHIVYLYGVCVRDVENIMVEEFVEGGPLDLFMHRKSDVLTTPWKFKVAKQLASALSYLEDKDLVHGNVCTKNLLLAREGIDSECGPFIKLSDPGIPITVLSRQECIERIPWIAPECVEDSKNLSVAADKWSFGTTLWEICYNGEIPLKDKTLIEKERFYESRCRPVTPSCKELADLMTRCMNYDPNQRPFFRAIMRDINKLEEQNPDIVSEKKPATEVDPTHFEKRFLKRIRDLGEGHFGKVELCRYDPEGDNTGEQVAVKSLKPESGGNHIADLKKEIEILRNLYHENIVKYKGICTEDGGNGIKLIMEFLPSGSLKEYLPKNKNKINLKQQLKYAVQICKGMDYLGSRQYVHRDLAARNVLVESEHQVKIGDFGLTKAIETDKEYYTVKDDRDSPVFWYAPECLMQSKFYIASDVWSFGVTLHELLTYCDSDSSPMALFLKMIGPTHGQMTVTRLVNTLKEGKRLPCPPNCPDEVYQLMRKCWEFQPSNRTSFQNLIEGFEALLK
T2 sequence (Q13191 whole entry): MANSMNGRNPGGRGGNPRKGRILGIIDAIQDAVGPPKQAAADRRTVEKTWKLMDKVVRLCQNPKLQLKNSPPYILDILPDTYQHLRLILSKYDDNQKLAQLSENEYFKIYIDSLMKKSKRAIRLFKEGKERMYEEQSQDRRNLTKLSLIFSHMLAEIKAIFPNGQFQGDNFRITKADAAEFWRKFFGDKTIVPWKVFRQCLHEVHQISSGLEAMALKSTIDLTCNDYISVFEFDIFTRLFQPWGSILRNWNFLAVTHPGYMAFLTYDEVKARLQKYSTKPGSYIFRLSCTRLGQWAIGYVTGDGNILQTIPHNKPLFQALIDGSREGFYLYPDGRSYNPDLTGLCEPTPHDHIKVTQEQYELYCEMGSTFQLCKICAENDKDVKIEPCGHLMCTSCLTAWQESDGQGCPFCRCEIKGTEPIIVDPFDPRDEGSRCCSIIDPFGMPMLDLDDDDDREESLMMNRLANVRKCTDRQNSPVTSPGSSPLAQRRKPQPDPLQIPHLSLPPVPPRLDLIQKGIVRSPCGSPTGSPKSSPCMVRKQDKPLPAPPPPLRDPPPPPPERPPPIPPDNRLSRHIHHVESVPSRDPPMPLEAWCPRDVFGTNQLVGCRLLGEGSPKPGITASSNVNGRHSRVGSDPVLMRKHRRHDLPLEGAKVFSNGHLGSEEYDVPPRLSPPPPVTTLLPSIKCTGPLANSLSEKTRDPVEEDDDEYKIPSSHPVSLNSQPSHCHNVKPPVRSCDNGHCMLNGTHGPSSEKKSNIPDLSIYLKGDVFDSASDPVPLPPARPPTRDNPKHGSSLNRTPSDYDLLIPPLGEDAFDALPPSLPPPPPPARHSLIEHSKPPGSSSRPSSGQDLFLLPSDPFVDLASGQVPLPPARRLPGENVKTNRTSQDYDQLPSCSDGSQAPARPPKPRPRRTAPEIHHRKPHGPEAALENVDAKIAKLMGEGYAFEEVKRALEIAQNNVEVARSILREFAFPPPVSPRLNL
T8 sequence (P29597 whole entry): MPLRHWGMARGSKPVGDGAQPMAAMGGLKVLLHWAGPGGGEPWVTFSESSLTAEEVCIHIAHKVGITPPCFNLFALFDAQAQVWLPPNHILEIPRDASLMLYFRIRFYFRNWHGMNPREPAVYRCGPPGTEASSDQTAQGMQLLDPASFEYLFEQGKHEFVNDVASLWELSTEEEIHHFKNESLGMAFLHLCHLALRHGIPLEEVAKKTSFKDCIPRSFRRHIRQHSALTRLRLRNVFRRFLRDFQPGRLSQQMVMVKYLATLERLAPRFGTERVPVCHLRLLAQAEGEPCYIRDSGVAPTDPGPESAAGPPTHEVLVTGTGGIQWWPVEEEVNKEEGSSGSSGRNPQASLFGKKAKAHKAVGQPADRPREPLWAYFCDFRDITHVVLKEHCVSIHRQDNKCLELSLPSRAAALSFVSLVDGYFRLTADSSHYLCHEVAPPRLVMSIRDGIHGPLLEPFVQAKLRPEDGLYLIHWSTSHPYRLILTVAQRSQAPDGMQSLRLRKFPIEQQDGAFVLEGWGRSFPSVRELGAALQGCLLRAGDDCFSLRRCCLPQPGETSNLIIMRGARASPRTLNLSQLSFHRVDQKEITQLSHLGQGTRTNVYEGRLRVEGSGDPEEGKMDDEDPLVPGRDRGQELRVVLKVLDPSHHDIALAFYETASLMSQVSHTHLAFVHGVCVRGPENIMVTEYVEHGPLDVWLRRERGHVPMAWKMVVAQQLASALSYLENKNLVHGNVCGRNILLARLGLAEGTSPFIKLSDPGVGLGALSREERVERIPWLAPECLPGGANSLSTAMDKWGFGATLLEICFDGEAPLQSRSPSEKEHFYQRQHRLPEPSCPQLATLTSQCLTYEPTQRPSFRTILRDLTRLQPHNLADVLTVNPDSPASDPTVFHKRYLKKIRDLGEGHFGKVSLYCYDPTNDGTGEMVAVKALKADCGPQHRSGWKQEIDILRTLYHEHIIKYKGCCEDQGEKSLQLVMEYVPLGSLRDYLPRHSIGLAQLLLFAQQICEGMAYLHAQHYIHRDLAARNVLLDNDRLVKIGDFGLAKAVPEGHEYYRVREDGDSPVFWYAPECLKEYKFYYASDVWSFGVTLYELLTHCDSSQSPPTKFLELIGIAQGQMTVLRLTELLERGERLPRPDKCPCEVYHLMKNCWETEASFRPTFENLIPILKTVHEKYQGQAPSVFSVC
T6 sequence (P40763 whole entry, one chain of several): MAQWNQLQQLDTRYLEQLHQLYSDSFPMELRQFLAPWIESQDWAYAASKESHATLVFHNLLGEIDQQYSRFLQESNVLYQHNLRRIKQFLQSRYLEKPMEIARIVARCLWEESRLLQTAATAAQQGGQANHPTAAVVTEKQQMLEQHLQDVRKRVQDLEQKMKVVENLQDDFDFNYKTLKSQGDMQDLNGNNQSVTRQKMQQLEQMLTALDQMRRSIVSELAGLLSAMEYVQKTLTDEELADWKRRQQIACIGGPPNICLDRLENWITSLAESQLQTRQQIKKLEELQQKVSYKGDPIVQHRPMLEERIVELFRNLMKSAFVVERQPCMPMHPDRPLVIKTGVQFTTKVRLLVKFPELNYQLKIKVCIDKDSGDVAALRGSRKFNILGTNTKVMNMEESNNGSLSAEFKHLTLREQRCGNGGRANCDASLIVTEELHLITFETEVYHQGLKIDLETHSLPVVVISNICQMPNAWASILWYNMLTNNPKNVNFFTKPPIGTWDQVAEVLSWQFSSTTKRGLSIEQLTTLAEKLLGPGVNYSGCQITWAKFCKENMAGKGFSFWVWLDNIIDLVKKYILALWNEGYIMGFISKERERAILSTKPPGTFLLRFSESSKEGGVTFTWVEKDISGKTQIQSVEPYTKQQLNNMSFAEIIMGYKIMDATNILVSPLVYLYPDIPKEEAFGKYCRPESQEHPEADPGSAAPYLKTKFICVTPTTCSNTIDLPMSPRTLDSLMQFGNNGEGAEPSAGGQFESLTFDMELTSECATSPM
T7 sequence (P40763 whole entry, one chain of several): as above
T4 sequence (Q16875 whole entry, one chain of several): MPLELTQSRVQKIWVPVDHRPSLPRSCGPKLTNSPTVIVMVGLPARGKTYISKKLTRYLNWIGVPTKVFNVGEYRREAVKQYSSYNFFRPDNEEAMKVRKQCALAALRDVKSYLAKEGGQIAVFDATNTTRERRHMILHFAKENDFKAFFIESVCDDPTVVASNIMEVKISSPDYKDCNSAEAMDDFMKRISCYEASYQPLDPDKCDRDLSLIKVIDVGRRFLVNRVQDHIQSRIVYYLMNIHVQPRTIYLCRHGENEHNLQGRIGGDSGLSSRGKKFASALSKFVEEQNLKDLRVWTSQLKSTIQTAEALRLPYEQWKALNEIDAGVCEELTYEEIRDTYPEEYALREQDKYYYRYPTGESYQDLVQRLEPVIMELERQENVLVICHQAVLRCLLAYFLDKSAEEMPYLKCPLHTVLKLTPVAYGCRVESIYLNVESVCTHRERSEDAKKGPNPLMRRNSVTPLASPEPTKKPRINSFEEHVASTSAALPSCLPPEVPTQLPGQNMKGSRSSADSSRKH

| SMILES | Cysteine reactivity proteomic data ([1]; 100 μM) | Cysteine reactivity proteomic data ([1]; 500 μM) | Cysteine reactivity proteomic data ([2]; 100 μM) | Cysteine reactivity proteomic data ([2]; 500 μM) | Cysteine reactivity proteomic data ([3]; 100 μM) | Cysteine reactivity proteomic data ([3]; 500 μM) | Cysteine reactivity proteomic data ([4]; 100 μM) | Cysteine reactivity proteomic data ([4]; 500 μM) | Cysteine reactivity proteomic data ([5]; 100 μM) | Cysteine reactivity proteomic data ([5]; 500 μM) | Cysteine reactivity proteomic data ([6]; 100 μM) | Cysteine reactivity proteomic data ([6]; 500 μM) | Cysteine reactivity proteomic data ([7]; 100 μM) | Cysteine reactivity proteomic data ([7]; 500 μM) | Cysteine reactivity proteomic data ([8]; 100 μM) | Cysteine reactivity proteomic data ([8]; 500 μM) | suppress T cell activation (primary human T cells; anti-CD3/anti-CD28 activation, measured 24 h later by reductions in secreted IL-2, IFN-γ and CD69, CD25 expression) | viability of T cells (primary human T cells; flow cytometry, near-IR live-dead stain) | isoTOP-ABPP ratio R (DMSO/compound treated) (BIRC2 (C45)) | isoTOP-ABPP ratio R (DMSO/compound treated) (CASP2 (C366, C370)) |
| --- | --- | --- | --- | --- | --- | --- | --- | --- | --- | --- | --- | --- | --- | --- | --- | --- | --- | --- | --- | --- |
| C=CC(=O)N(Cc1cccc(Cl)n1)c1ccc(C(=O)Nc2ccccc2)nc1 [Compound L4] | −14.9577 | 58.3081 | 4.7619 | 84.7455 | 94.3358 | 99.489 | 81.7564 | 89.0944 | 50.0993 | 72.8049 | 58.1986 | 57.1888 | 42.1791 | 80.6157 | 96.4386 | 98.2637 |  |  |  |  |
| CN(C)C=O [DMF] |  |  |  |  |  |  |  |  |  |  |  |  |  |  |  |  | > 65% | > 85% | 20 | 20 |
